Results as given in patent EP4603497A1, “CRYSTAL FORM OF CYANO-SUBSTITUTED POLYPEPTIDE COMPOUND AND PREPARATION METHOD THEREFOR” (Fujian Akeylink Biotechnology Co., Ltd., priority 2022, dated 2024).

Assays:
coronavirus HCoV OC43 = assay: in vitro anti-coronavirus activity, cytopathic model (CPE, CellTiter Glo); type: cell-based; conditions: Betacoronavirus 1, 120 h; MRC5 cells, HCoV OC43 100TCID50/well, 5 days
Method: MRC5 cells and coronavirus HCoV OC43 were purchased from ATCC.
MRC5 cells were cultured in MEM (Sigma) culture medium supplemented with 10% fetal bovine serum (Excell), 1% dual antibody (Hyclone), 1% L-glutamine (Gibco), and 1% non-essential amino acids (Gibco). MEM (Sigma) culture medium supplemented with 5% fetal bovine serum (Excell), 1% dual antibody (Hyclone), 1% L-glutamine (Gibco), and 1% non-essential amino acids (Gibco) was used as the experimental culture medium.
Cells were seeded at a certain density (Table 12) into a 96-well plate and incubated overnight in a 5% CO2, 37°C incubator. The next day, the diluted compound (8 concentration points, double replicate wells) was added thereto, 50 µL per well. Then the diluted virus was added to each well at 100 TCID50, 50 µL per well. Cell controls (cells, no compound treatment or virus infection), virus controls (cells infected with virus, no compound treatment), and culture medium controls (only culture medium) were set up. […] Cell viability was detected using the CellTiter Glo (Promega) cell viability assay kit. […]
(§1) The inhibition rate and cell viability of the compound were analyzed using GraphPad Prism for non-linear fitting, and the half-maximal effective concentration (EC50) and half-maximal cytotoxic concentration (CC50) values of the compound were calculated. […]

coronavirus OC43 strain = assay: in vivo antiviral efficacy, suckling mouse infection model; conditions: once a day for 7 consecutive days, first dose 2 hours before inoculation
Excerpt: Experimental example 4: Evaluation of the in vivo antiviral efficacy of the test compound using a suckling mouse infection model with the coronavirus OC43 strain

[1] = cytotoxicity experiment (same conditions, without virus infection); type: cell-based; conditions: human; MRC5 cells, 5 days, no virus
Method: Cells were seeded at a certain density (Table 12) into a 96-well plate and incubated overnight in a 5% CO2, 37°C incubator. The next day, the diluted compound (8 concentration points, double replicate wells) was added thereto, 50 µL per well. Then the diluted virus was added to each well at 100 TCID50, 50 µL per well. Cell controls (cells, no compound treatment or virus infection), virus controls (cells infected with virus, no compound treatment), and culture medium controls (only culture medium) were set up. The final volume of the experimental culture medium was 200 µL, with a final DMSO concentration of 0.5% in the culture medium. The cells were incubated for 5 days in a 5% CO2, 33°C incubator. Cell viability was detected using the CellTiter Glo (Promega) cell viability assay kit. The conditions for the cytotoxicity experiment were the same as for the antiviral experiment, but without virus infection.
The antiviral activity and cytotoxicity of the compound were represented by the inhibition rate (%) and the cell viability (%) of the cytopathic effect caused by the virus at different concentrations of the compound, respectively. […]
as §1

SARS-CoV-2 Mpro = molecular target: T1, SARS-CoV-2 Mpro (Severe acute respiratory syndrome coronavirus 2, UniProt P0DTD1); assay: in vitro anti-SARS-CoV-2 Mpro protease activity (fluorescent substrate assay); type: biochemical; conditions: 25 nM Mpro protein, 25 µM substrate
T1 construct: SARS-CoV-2 Mpro; purchased WuXi AppTec
Method: The compound was dissolved in DMSO, diluted in a 3-fold gradient using Echo655 according to the required test concentration, with 10 concentration points. Each concentration was duplicated and added to a 384-well plate. The Mpro protein and substrate were diluted with a test buffer (100 mM NaCl, 20 mM Tris-HCl, 1 mM EDTA), and the Mpro protein was added to the 384-well test plate, incubated with the compound at room temperature for 30 min, then the substrate was added. The test concentration of the Mpro protein was 25 nM and the test concentration of the substrate was 25 µM. The mixture was incubated in a constant temperature incubator at 30°C for 60 minutes. Then, the fluorescence signal value at Ex/Em = 340 nm/490 nm was detected using a microplate reader. At the same time, the background well containing substrate and compound but not containing Mpro protein was detected as a control. […]

in vivo = assay: in vivo; parameters: species or system SD rats; conditions: rat; for AUC(0-t): AUC0-last; for half-life: T1/2
Method: In this study, male and female SD rats were selected as test animals.
Animals were grouped according to 3 per group/gender. […] The plasma drug concentration was determined using LC-MS/MS method. Table 14: Pharmacokinetic parameters in rats

[2] = stability of the crystal form under different conditions (XRPD confirmation); type: physicochemical
Excerpt: Table 6: Stability test under different conditions

[3] = hygroscopicity by dynamic vapor sorption (DVS); type: physicochemical
Method: • Instrument model: SMS DVS Advantage dynamic vapor sorption analyzer • Test conditions: A sample (10 to 30 mg) is taken and placed in a DVS sample tray for testing. • The detailed parameters for DVS are as follows: • Temperature: 25°C • Equilibrium: dm/dt = 0.002%/min (minimum: 10 minutes, maximum: 180 minutes) • RH (%) range: 70%RH-95%RH-0%RH-95%RH • RH (%) gradient: 10% (90%RH-0%RH-90%RH), 5% (95%RH-90%RH and 90%RH-95%RH).

Q: Which EC50 (coronavirus HCoV OC43) does the source give for CC(C)(C)[C@H](NC(=O)C(F)(F)F)C(=O)N1[C@H]2C[C@@H]([C@H]1C(=O)N[C@H](C#N)C[C@@H]1CCNC1=O)C1(CC1)C2 [Compound 1] here?
A: Its EC50 is 5.1 nM.

Q: And the EC90 (coronavirus HCoV OC43)?
A: The EC90 was 7.9 nM.

Q: And the Median survival time (coronavirus OC43 strain; 12.5 mg/kg)?
A: The Median survival time was over 14 days.

Q: And the Survival rate (coronavirus OC43 strain; 12.5 mg/kg)?
A: Its Survival rate is 87.5%.

Q: What about the Median survival time (coronavirus OC43 strain; 25 mg/kg) of the same compound?
A: The Median survival time was over 14 days.

Q: What about the Survival rate (coronavirus OC43 strain; 25 mg/kg) of the same compound?
A: Its Survival rate is 100%.

Q: What about the Median survival time (coronavirus OC43 strain; 50 mg/kg) of the same compound?
A: Its Median survival time is over 14 days.

Q: What about the Survival rate (coronavirus OC43 strain; 50 mg/kg) of the same compound?
A: The Survival rate was 100%.

Q: And the CC50 at 120 h [1]?
A: The CC50 at 120 h was over 10000 nM.

Q: And the IC50 (SARS-CoV-2 Mpro)?
A: The IC50 was 1.8 nM.

Q: For CC(C)(C)[C@H](NC(=O)C(F)(F)F)C(=O)N1[C@H]2C[C@@H]([C@H]1C(=O)N[C@H](C#N)C[C@@H]1CCNC1=O)C1(CC1)C2 [Crystal form A], which AUC0-last (in vivo; iv, 2 mg/kg) is on record?
A: The AUC0-last was 778 ng·h/mL.

Q: And the AUC(0-inf) (in vivo; iv, 2 mg/kg)?
A: Its AUC(0-inf) is 785 ng·h/mL.

Q: And the Cl (in vivo; iv, 2 mg/kg)?
A: Its Cl is 42.5 mL/min/kg.

Q: And the T1/2 (in vivo; iv, 2 mg/kg)?
A: The T1/2 was 18.2 min.

Q: What about the Vdss (in vivo; iv, 2 mg/kg) of the same compound?
A: Its Vdss is 1.04 L/kg.

Q: And the AUC(0-inf) (in vivo; iv, 2 mg/kg, AUC0-inf)?
A: The AUC(0-inf) was 804 ng·h/mL.

Q: What about the AUC(0-t) (in vivo; iv, 2 mg/kg) of the same compound?
A: Its AUC(0-t) is 792 ng·h/mL.

Q: What about the clearance (in vivo; iv, 2 mg/kg, Cl) of the same compound?
A: The clearance was 42.4 mL/min/kg.

Q: And the half-life (in vivo; iv, 2 mg/kg)?
A: The half-life was 19.8 min.

Q: What about the Vd (in vivo; iv, 2 mg/kg, Vdss) of the same compound?
A: The Vd was 1.11 L/kg.

Q: And the AUC0-last (in vivo; po, 30 mg/kg)?
A: Its AUC0-last is 9910 ng·h/mL.

Q: And the Tmax (in vivo; po, 30 mg/kg)?
A: The Tmax was 30 min.

Q: And the AUC(0-inf) (in vivo; po, 30 mg/kg, AUC0-inf)?
A: The AUC(0-inf) was 5980 ng·h/mL.

Q: And the AUC(0-t) (in vivo; po, 30 mg/kg)?
A: Its AUC(0-t) is 5960 ng·h/mL.

Q: And the half-life (in vivo; po, 30 mg/kg)?
A: Its half-life is 49.6 min.

Q: What about the Tmax (in vivo; po, 30 mg/kg, Tmax) of the same compound?
A: Its Tmax is 55 min.

Q: And the “Confirmation of crystal form by XRPD after completion of the experiment” value (“Confirmation of crystal form by XRPD” below) ([2]; High humidity condition (25°C/92.5%RH), 30 days)?
A: The value was “Crystal form A”.

Q: What about the “Confirmation of crystal form by XRPD” value ([2]; High temperature (60°C), 30 days) of the same compound?
A: Its value is “Crystal form A”.

Q: And the “Confirmation of crystal form by XRPD” value ([2]; Illumination (5000 ± 500 lux (visible light) and 90 µw/cm^2 (ultraviolet)), 10 days)?
A: Its value is “Crystal form A”.

Q: What about the hygroscopic weight gain ([3]; 25°C and 80% RH) of the same compound?
A: The hygroscopic weight gain was 0.114%.

Q: What about the hygroscopicity ([3]; 25°C and 80% RH) of the same compound?
A: The hygroscopicity was “no or almost no hygroscopicity”.

Q: What about the ΔW ([3]; DVS pattern, Figure 16) of the same compound?
A: Its ΔW is 0.114%.
